Source: ChEMBL document CHEMBL1201862, “PubChem BioAssay data set” (2004)
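Assay format: 96-well plates, 48-hour exposure. At the GI50, growth is halved.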 The source made the active and inactive calls. Cut-off read from the data, not from the text of the source: active = GI50 up to about 1.1 µM and inactive = higher.

Columns and labels:
Assay in all cases: growth of human tumour cells (NCI), 48 h
[1] = test system: ACHN
[2] = test system: A549
[3] = test system: MDA-MB-231
[4] = test system: 786-0
[5] = test system: CCRF-CEM
[6] = test system: HL-60
[7] = test system: MCF7
[8] = test system: SK-MEL-2
[9] = test system: UACC-257
[10] = test system: A498
[11] = test system: M14
[12] = test system: PC-3
[13] = test system: SNB-19
[14] = test system: NCI-H23
[15] = test system: NCI-H460
[16] = test system: Hs-578T
[17] = test system: RPMI-8226
[18] = test system: NCI/ADR-RES
[19] = test system: MDA-N
[20] = test system: NCI-H522

For `CC#CC(O)(C(=O)OCCCN(C)C)C1CCCCC1` (stereo not given), the GI50 [1] was > 100 µM (inactive), the GI50 [2] was > 100 µM (inactive) and the GI50 [3] was > 100 µM (inactive). For the same compound, the GI50 [4] was > 100 µM (inactive), the GI50 [5] was > 100 µM (inactive) and the GI50 [6] was > 100 µM (inactive). For the same compound, the GI50 [7] was > 100 µM (inactive), the GI50 [8] was > 100 µM (inactive) and the GI50 [9] was > 100 µM (inactive). For the same compound, the GI50 [10] was > 100 µM (inactive), the GI50 [11] was > 100 µM (inactive) and the GI50 [12] was > 100 µM (inactive). For the same compound, the GI50 [13] was > 100 µM (inactive), the GI50 [14] was > 100 µM (inactive) and the GI50 [15] was > 100 µM (inactive). For the same compound, the GI50 [16] was > 100 µM (inactive), the GI50 [17] was > 100 µM (inactive) and the GI50 [18] was > 100 µM (inactive). The GI50 [19] was > 100 µM (inactive).

In the case of `CC1=NN(C(=O)CC(=O)Nc2cccc(Cl)c2)C(=O)C1/N=N\c1ccc(S(=O)(=O)c2ccc(/N=N/C3C(=O)N(C(=O)CC(=O)Nc4cccc(Cl)c4)N=C3C)cc2)cc1` (stereo not given), the GI50 [1] is reported as > 100 µM (inactive), the GI50 [2] is reported as > 100 µM (inactive) and the GI50 [3] is reported as 16.1 µM (inactive). The GI50 [4] was > 100 µM (inactive), the GI50 [5] was > 100 µM (inactive) and the GI50 [6] was > 100 µM (inactive). The GI50 [20] was > 100 µM (inactive), the GI50 [7] was > 100 µM (inactive) and the GI50 [8] was > 100 µM (inactive). For the same compound, the GI50 [9] was > 100 µM (inactive), the GI50 [11] was > 100 µM (inactive) and the GI50 [12] was > 100 µM (inactive). The GI50 [13] was > 100 µM (inactive), the GI50 [14] was > 100 µM (inactive) and the GI50 [15] was > 100 µM (inactive). For the same compound, the GI50 [16] was > 100 µM (inactive), the GI50 [17] was > 100 µM (inactive) and the GI50 [18] was > 100 µM (inactive). The GI50 [19] was > 100 µM (inactive).

In the case of `C=C1CC[C@]2(C)[C@H](CC[C@@]34C[C@@H](CC[C@H]32)[C@@H](C(=O)O)C4)C1(C)C`, the GI50 [1] is reported as 8.63 µM (inactive), the GI50 [2] is reported as 5.22 µM (inactive) and the GI50 [3] is reported as > 12.5 µM (inactive). The GI50 [4] was 7.83 µM (inactive), the GI50 [5] was 7.05 µM (inactive) and the GI50 [6] was 4.7 µM (inactive). For the same compound, the GI50 [7] was > 12.5 µM (inactive), the GI50 [8] was > 12.5 µM (inactive) and the GI50 [9] was > 12.5 µM (inactive). The GI50 [10] was 3.69 µM (inactive), the GI50 [11] was > 12.5 µM (inactive) and the GI50 [12] was 10.3 µM (inactive). The GI50 [13] was > 12.5 µM (inactive), the GI50 [14] was > 12.5 µM (inactive) and the GI50 [15] was 5.19 µM (inactive). For the same compound, the GI50 [16] was 6.68 µM (inactive), the GI50 [18] was > 12.5 µM (inactive) and the GI50 [19] was > 12.5 µM (inactive).

With `COc1cc(/C=C2\S/C(=N/Nc3nc(-c4ccc(Br)cc4)cs3)NC2=O)cc(OC)c1OC` the GI50 [1] was 11 µM (inactive), the GI50 [2] was 13.6 µM (inactive) and the GI50 [3] was 14.3 µM (inactive). The GI50 [4] was 9.44 µM (inactive), the GI50 [5] was 2.45 µM (inactive) and the GI50 [6] was 2.08 µM (inactive). The GI50 [20] was 12.5 µM (inactive), the GI50 [7] was 15.4 µM (inactive) and the GI50 [8] was 15.1 µM (inactive). For the same compound, the GI50 [9] was 18.2 µM (inactive), the GI50 [11] was 15.6 µM (inactive) and the GI50 [12] was 4.03 µM (inactive). The GI50 [13] was 4.74 µM (inactive), the GI50 [14] was 5.11 µM (inactive) and the GI50 [15] was 11.9 µM (inactive). The GI50 [16] was 11.9 µM (inactive), the GI50 [18] was 15.9 µM (inactive) and the GI50 [19] was 17.4 µM (inactive).

In the case of `CCOC(=O)c1cnc2oc(/C=N/N3CC(CN4CCOCC4)OC3=O)cc2c1O` (stereo not given), the GI50 [1] is reported as > 100 µM (inactive), the GI50 [2] is reported as > 100 µM (inactive) and the GI50 [3] is reported as > 100 µM (inactive). For the same compound, the GI50 [4] was > 100 µM (inactive), the GI50 [5] was > 100 µM (inactive) and the GI50 [6] was > 100 µM (inactive). For the same compound, the GI50 [7] was > 100 µM (inactive), the GI50 [8] was > 100 µM (inactive) and the GI50 [9] was > 100 µM (inactive). For the same compound, the GI50 [11] was > 100 µM (inactive), the GI50 [12] was > 100 µM (inactive) and the GI50 [13] was > 100 µM (inactive). The GI50 [14] was > 100 µM (inactive), the GI50 [15] was > 100 µM (inactive) and the GI50 [16] was > 100 µM (inactive). The GI50 [17] was > 100 µM (inactive), the GI50 [18] was > 100 µM (inactive) and the GI50 [19] was > 100 µM (inactive).

In the case of `COc1cc([C@@H]2c3cc4c(cc3[C@@H](OC3OC5COC(C)OC5C(OC(=O)CN5CCN(C)CC5)C3OC(=O)CN3CCN(C)CC3)C3COC(=O)[C@@H]32)OCO4)cc(OC)c1OC(=O)CN1CCN(C)CC1` (stereo not given in full), the GI50 [1] is reported as 54.5 µM (inactive), the GI50 [3] is reported as 54.3 µM (inactive) and the GI50 [4] is reported as 21.9 µM (inactive). For the same compound, the GI50 [5] was 9.29 µM (inactive), the GI50 [6] was 11.5 µM (inactive) and the GI50 [20] was 27.2 µM (inactive). For the same compound, the GI50 [7] was 10.8 µM (inactive), the GI50 [8] was > 100 µM (inactive) and the GI50 [9] was > 100 µM (inactive). The GI50 [11] was 55.8 µM (inactive), the GI50 [12] was > 100 µM (inactive) and the GI50 [13] was 78.7 µM (inactive). The GI50 [14] was 22.3 µM (inactive), the GI50 [15] was 11.2 µM (inactive) and the GI50 [16] was 56 µM (inactive). The GI50 [18] was 29.9 µM (inactive) and the GI50 [19] was > 100 µM (inactive).

With `CCN(CC)CCC(=O)c1ccc(Oc2ccc(C)cc2)cc1` the GI50 [1] was 21.1 µM (inactive), the GI50 [2] was > 100 µM (inactive) and the GI50 [3] was 16.9 µM (inactive). The GI50 [4] was 16.5 µM (inactive), the GI50 [5] was 26.3 µM (inactive) and the GI50 [7] was 17.6 µM (inactive). For the same compound, the GI50 [8] was 33.2 µM (inactive), the GI50 [9] was 19.2 µM (inactive) and the GI50 [11] was 16.6 µM (inactive). For the same compound, the GI50 [12] was 17.9 µM (inactive), the GI50 [13] was 18.5 µM (inactive) and the GI50 [14] was 17.7 µM (inactive). For the same compound, the GI50 [16] was 23.4 µM (inactive), the GI50 [17] was 7.29 µM (inactive) and the GI50 [18] was 23 µM (inactive). The GI50 [19] was 17.7 µM (inactive).

For `Fc1ccc(C(OCCN2CCC3CCC(C2)N3C/C=C/c2ccco2)c2ccc(F)cc2)cc1` (stereo not given), the GI50 [1] was 12.7 µM (inactive), the GI50 [2] was 12.5 µM (inactive) and the GI50 [3] was 11.1 µM (inactive). The GI50 [4] was 9.4 µM (inactive), the GI50 [5] was 0.0459 µM (active) and the GI50 [20] was 7.23 µM (inactive). The GI50 [7] was 10.2 µM (inactive), the GI50 [8] was 12.3 µM (inactive) and the GI50 [9] was 4.44 µM (inactive). For the same compound, the GI50 [10] was 11.2 µM (inactive), the GI50 [11] was 5.5 µM (inactive) and the GI50 [12] was 8.2 µM (inactive). For the same compound, the GI50 [13] was 15.7 µM (inactive), the GI50 [14] was 11.3 µM (inactive) and the GI50 [15] was 7.11 µM (inactive). For the same compound, the GI50 [16] was 14.7 µM (inactive), the GI50 [17] was 4.2 µM (inactive) and the GI50 [18] was 7.4 µM (inactive). The GI50 [19] was 12.4 µM (inactive).

For `CSc1scc2c1/C(=N/NC(N)=O)CCC2`, the GI50 [1] was > 100 µM (inactive), the GI50 [2] was 78.3 µM (inactive) and the GI50 [3] was > 100 µM (inactive). For the same compound, the GI50 [4] was > 100 µM (inactive), the GI50 [5] was 41.1 µM (inactive) and the GI50 [7] was 90.4 µM (inactive). The GI50 [8] was > 100 µM (inactive), the GI50 [9] was > 100 µM (inactive) and the GI50 [10] was 39.7 µM (inactive). The GI50 [11] was > 100 µM (inactive), the GI50 [12] was 93.5 µM (inactive) and the GI50 [13] was > 100 µM (inactive). For the same compound, the GI50 [14] was > 100 µM (inactive), the GI50 [15] was 94.4 µM (inactive) and the GI50 [16] was 82.6 µM (inactive). For the same compound, the GI50 [17] was 88.1 µM (inactive), the GI50 [18] was 20.1 µM (inactive) and the GI50 [19] was 45.3 µM (inactive).

`O=C(O)C1C2CCC(O2)C1C(=O)NCc1cccnc1` (stereo not given) was tested, and the GI50 [1] was > 100 µM (inactive), the GI50 [2] was > 100 µM (inactive) and the GI50 [3] was > 100 µM (inactive). For the same compound, the GI50 [4] was > 100 µM (inactive), the GI50 [5] was > 100 µM (inactive) and the GI50 [20] was > 100 µM (inactive). For the same compound, the GI50 [7] was > 100 µM (inactive), the GI50 [8] was > 100 µM (inactive) and the GI50 [9] was > 100 µM (inactive). For the same compound, the GI50 [10] was > 100 µM (inactive), the GI50 [11] was > 100 µM (inactive) and the GI50 [12] was > 100 µM (inactive). The GI50 [13] was > 100 µM (inactive), the GI50 [14] was > 100 µM (inactive) and the GI50 [15] was > 100 µM (inactive). For the same compound, the GI50 [16] was > 100 µM (inactive), the GI50 [17] was > 100 µM (inactive) and the GI50 [18] was > 100 µM (inactive). For the same compound, the GI50 [19] was > 100 µM (inactive).

`CCOC(=O)c1c(NS(=O)(=O)c2ccccc2)sc2c1CCCC2` was tested, and the GI50 [1] was 64.6 µM (inactive), the GI50 [2] was 47.9 µM (inactive) and the GI50 [3] was > 100 µM (inactive). For the same compound, the GI50 [4] was 80.5 µM (inactive), the GI50 [5] was 25.5 µM (inactive) and the GI50 [6] was 57.5 µM (inactive). The GI50 [7] was 46.7 µM (inactive), the GI50 [8] was 68.1 µM (inactive) and the GI50 [9] was 81.7 µM (inactive). For the same compound, the GI50 [10] was 98.2 µM (inactive), the GI50 [11] was 81.3 µM (inactive) and the GI50 [12] was 39.5 µM (inactive). The GI50 [13] was 93.1 µM (inactive), the GI50 [14] was > 100 µM (inactive) and the GI50 [15] was > 100 µM (inactive). The GI50 [16] was 82.8 µM (inactive), the GI50 [17] was 26.9 µM (inactive) and the GI50 [18] was 62.1 µM (inactive). For the same compound, the GI50 [19] was > 100 µM (inactive).
